Measured values as given in US12485075B2, “Particulates of polyphenolics and dispersions thereof” (priority 2020, dated 2025).

How the values were obtained:
[1] = cited from earlier work
human skin explants [2] = assay: Intracellular ROS scavenging activity assay, solar simulated UVA/UVB exposure; format: cell-based
Experimental: Intracellular Reactive Oxygen Species (ROS) Scavenging Activity Assays were conducted on human skin explants from donors of skin Phototype II. The skin explants were treated with, a non-fluorescent probe, 2′, 7′-Dichlorofluorescein diacetate (DCFHDA). After treatment, the skin explants were treated with the moisturizer compositions at a dose of 2 mg/cm^2 and exposed to solar simulated UVA/UVB at doses of 70 mJ/cm^2 in triplicate. DCFH-DA is taken up by cells by passive diffusion and DCFH-DA is deacetylated by cellular esterases to non-fluorescent DCFH, which is trapped within cells. The fluorescent 2′, 7′-dichlorofluorescein (DCF) is generated upon enzymatic reduction and subsequent oxidation by ROS. Fluorescence was measured and correlates to the test item's ability to scavenge ROS. The results are presented as percentage reduction of ROS relative to the level generated following UVA/UVB exposure of unprotected skin. The results of these studies are shown in the Table below and presented as percentage reduction in intracellular ROS relative to unprotected skin. […] These associated skin protective effects include but are not limited to suppressing lipid peroxidation in the skin, preventing or reducing the appearance of lines and wrinkles in skin, preventing loss of elasticity of skin, preventing thinning of skin, and preventing pigment darkening of skin.

human skin explants [3] = assay: Intracellular ROS scavenging activity assay, HEV exposure; format: cell-based; settings: HEV exposure 412 nm and 450 nm
Experimental: Intracellular Reactive Oxygen Species (ROS) Scavenging Activity Assays were conducted on human skin explants from donors of skin Phototype II. The skin explants were treated with, a non-fluorescent probe, 2′, 7′-Dichlorofluorescein diacetate (DCFHDA). […] DCFH-DA is taken up by cells by passive diffusion and DCFH-DA is deacetylated by cellular esterases to non-fluorescent DCFH, which is trapped within cells. The fluorescent 2′, 7′-dichlorofluorescein (DCF) is generated upon enzymatic reduction and subsequent oxidation by ROS. Fluorescence was measured and correlates to the test item's ability to scavenge ROS. The results are presented as percentage reduction of ROS relative to the level generated following UVA/UVB exposure of unprotected skin.

| Compound | solubility in bulk oils, such as soybean oil [1] [% by weigh] | reduction in ROS, result in words (human skin explants [2]) | reduction in ROS, result in words (human skin explants [3]) |
| --- | --- | --- | --- |
| C[C@@H]1O[C@@H](OC[C@H]2O[C@@H](Oc3c(-c4ccc(O)c(O)c4)oc4cc(O)cc(O)c4c3=O)[C@H](O)[C@@H](O)[C@@H]2O)[C@H](O)[C@H](O)[C@H]1O [Rutin, quercetin-3-O-rutinoside] | 0.1 | – | – |
| Cc1c(C)c2c(c(C)c1O)CCC(C)(CCCC(C)CCCC(C)CCCC(C)C)O2 (racemic) [DL-alpha-tocopherol] | – | statistically significant reduction in ROS | no statistically significant reduction in ROS |
